# Source: US20260092083A1, “VANCOMYCIN DERIVATIVES WITH SIDEROPHORE MODIFICATION AS NOVEL REPURPOSED ANTIBIOTICS TO COMBAT GRAM-NEGATIVE BACTERIAL INFECTION” (priority 2023, published 2026)
# How the values were obtained:
# Assay type in all cases: cell-based
# [1] = system: E. coli (wild-type) BW25113; test: Broth microdilution MIC, E. coli wild-type; conditions: Escherichia coli, iron-depleted CAMHB, OD600 ≤0.15, read-out: MIC (μg/mL) Gram-negative EC
# Description: (§1) The test compounds including vancomycin hydrochloride were supplied as a 6.4 mg/mL solution in 100% dimethyl sulfoxide (DMSO) aliquoted into individual wells of a 96-well plate (50 μL per well). […] Standardized inocula were added to the MIC test plates, which were incubated for the prescribed times at 35° C. The N. gonorrhoeae strain was incubated in an atmosphere containing 5% CO2.
# (§2) The final optical density of each well at 600 nm was measured using a Tecan Spark plate reader. The compound concentration versus OD600 data were then curve fit using custom software. An MIC value was defined as the lowest compound concentration that led to an OD600 value≤0.15 for the E. coli, K. pneumoniae, P. aeruginosa, A. baumannii, or S. aureus strains. For the N. gonorrhoeae strain, an OD600 value≤0.19 was used as a cutoff to define an MIC value; this higher cut-off value was required because the N. gonorrhoeae MIC plates were covered with plastic seals that increased the background OD600 value.
# (§3) JMI Laboratories followed current CLSI quality assurance practices when performing the susceptibility tests. MIC values were validated by concurrently testing the CLSI-recommended ATCC QC reference strains S. aureus ATCC 29213 and K. pneumoniae ATCC 700603. The inoculum density during susceptibility testing was monitored by bacterial colony counts. Where applicable, QC ranges for tested reference strains were those ranges approved or published by CLSI for testing in CAMHB. […] Importantly, the CLSI reference method for testing N. gonorrhoeae is the agar dilution MIC method, which was not used here. Thus, CLSI MIC QC ranges for N. gonorrhoeae could not be applied to the antimicrobials studied here.
# (§4) Abbreviations: EC, E. coli (wild-type) BW25113; EC efflux^−, E. coli (tolC) JW5503-1; KPN, K. pneumoniae ATCC 700603; PSA, P. aeruginosa PAO1; PSA efflux^−, P. aeruginosa (multi-pump-gene mutant) PAM1626; ACB, A. baumannii JMI #1186154; GC, N. gonorrhoeae WHO-Z; SA, S. aureus ATCC 29213. Broth microdilution MIC values were measured in iron-depleted CAMHB for all strains except for GC, which was tested in fastidious broth.
# [2] = system: E. coli (tolC) JW5503-1; test: Broth microdilution MIC, E. coli efflux-deficient (tolC); conditions: Escherichia coli, read-out: MIC (μg/mL) Gram-negative EC Efflux
# Description: as §1, §2, §3, §4
# [3] = system: K. pneumoniae ATCC 700603; test: Broth microdilution MIC, K. pneumoniae; conditions: Klebsiella pneumoniae, ATCC700603, read-out: MIC (μg/mL) Gram-negative KPN
# Description: as §1, §2, §3, §4
# [4] = system: P. aeruginosa PAO1; test: Broth microdilution MIC, P. aeruginosa; conditions: Pseudomonas aeruginosa, iron-depleted CAMHB, OD600 ≤0.15, read-out: MIC (μg/mL) Gram-negative PSA
# Description: as §1, §2, §3, §4
# [5] = system: P. aeruginosa (multi-pump-gene mutant) PAM1626; test: Broth microdilution MIC, P. aeruginosa efflux-deficient; conditions: Pseudomonas aeruginosa, read-out: MIC (μg/mL) Gram-negative PSA Efflux
# Description: as §1, §2, §3, §4
# [6] = system: A. baumannii JMI #1186154; test: Broth microdilution MIC, A. baumannii; conditions: Acinetobacter baumannii, iron-depleted CAMHB, OD600 ≤0.15, read-out: MIC (μg/mL) Gram-negative ACB
# Description: as §1, §2, §3, §4
# [7] = system: N. gonorrhoeae WHO-Z; test: Broth microdilution MIC, N. gonorrhoeae; conditions: Neisseria gonorrhoeae, read-out: MIC (μg/mL) Gram-negative GC
# Description: as §1, §2, §3, §4
# [8] = system: S. aureus ATCC 29213; test: Broth microdilution MIC, S. aureus; conditions: Staphylococcus aureus, ATCC29213, iron-depleted CAMHB, OD600 ≤0.15, read-out: MIC (μg/mL) Gram positive SA
# Description: as §1, §2, §3, §4
Compound,MIC [1],MIC [2],MIC [3],MIC [4],MIC [5],MIC [6],MIC [7],MIC [8]
CNC(CC(C)C)C(=O)NC1C(=O)NC(CC(N)=O)C(=O)NC2C(=O)NC3C(=O)NC(C(=O)N[C@H](C(=O)NCCCNC(=O)c4cc(=O)c(O)c[nH]4)c4cc(O)cc(O)c4-c4cc3ccc4O)C(O)c3ccc(c(Cl)c3)Oc3cc2cc(c3OC2OC(CO)C(O)C(O)C2OC2CC(C)(N)C(O)C(C)O2)Oc2ccc(cc2Cl)C1O (stereo in doubt) [Compound 20],32 µg/mL,64 µg/mL,> 64 µg/mL,64 µg/mL,64 µg/mL,32 µg/mL,> 64 µg/mL,32 µg/mL
CN[C@H](CC(C)C)C(=O)N[C@H]1C(=O)N[C@@H](CC(N)=O)C(=O)N[C@H]2C(=O)N[C@H]3C(=O)N[C@H](C(=O)N[C@H](C(=O)NCCCCCNC(=O)c4ccc(O)c(O)c4Cl)c4cc(O)cc(O)c4-c4cc3ccc4O)[C@H](O)c3ccc(c(Cl)c3)Oc3cc2cc(c3O[C@@H]2O[C@H](CO)C(O)C(O)[C@H]2O[C@H]2CC(C)(N)[C@H](O)[C@H](C)O2)Oc2ccc(cc2Cl)[C@H]1O (some centres unmarked) [Compound 6],64 µg/mL,> 64 µg/mL,> 64 µg/mL,> 64 µg/mL,> 64 µg/mL,4 µg/mL,> 64 µg/mL,4 µg/mL
CN[C@H](CC(C)C)C(=O)N[C@H]1C(=O)N[C@@H](CC(N)=O)C(=O)N[C@H]2C(=O)N[C@H]3C(=O)N[C@H](C(=O)N[C@H](C(=O)NCCCCCCNC(=O)c4ccc(O)c(O)c4Cl)c4cc(O)cc(O)c4-c4cc3ccc4O)[C@H](O)c3ccc(c(Cl)c3)Oc3cc2cc(c3O[C@@H]2O[C@H](CO)C(O)C(O)[C@H]2O[C@H]2CC(C)(N)[C@H](O)[C@H](C)O2)Oc2ccc(cc2Cl)[C@H]1O (some centres unmarked) [Compound 7],64 µg/mL,64 µg/mL,> 64 µg/mL,> 64 µg/mL,> 64 µg/mL,1 µg/mL,> 64 µg/mL,4 µg/mL
CN[C@H](CC(C)C)C(=O)N[C@H]1C(=O)N[C@@H](CC(N)=O)C(=O)N[C@H]2C(=O)N[C@H]3C(=O)N[C@H](C(=O)N[C@H](C(=O)NCCCCNC(=O)c4cccc(O)c4O)c4cc(O)cc(O)c4-c4cc3ccc4O)[C@H](O)c3ccc(c(Cl)c3)Oc3cc2cc(c3O[C@@H]2O[C@H](CO)C(O)C(O)[C@H]2O[C@H]2CC(C)(N)[C@H](O)[C@H](C)O2)Oc2ccc(cc2Cl)[C@H]1O (some centres unmarked) [Compound 13],64 µg/mL,> 64 µg/mL,> 64 µg/mL,> 64 µg/mL,> 64 µg/mL,4 µg/mL,> 64 µg/mL,2 µg/mL
CN[C@H](CC(C)C)C(=O)N[C@H]1C(=O)N[C@@H](CC(N)=O)C(=O)N[C@H]2C(=O)N[C@H]3C(=O)N[C@H](C(=O)N[C@H](C(=O)NCCCCNC(=O)c4ccc(O)c(O)c4Cl)c4cc(O)cc(O)c4-c4cc3ccc4O)[C@H](O)c3ccc(c(Cl)c3)Oc3cc2cc(c3O[C@@H]2O[C@H](CO)C(O)C(O)[C@H]2O[C@H]2CC(C)(N)[C@H](O)[C@H](C)O2)Oc2ccc(cc2Cl)[C@H]1O (some centres unmarked) [Compound 5],8 µg/mL,> 64 µg/mL,> 64 µg/mL,> 64 µg/mL,> 64 µg/mL,1 µg/mL,> 64 µg/mL,4 µg/mL
CNC(CC(C)C)C(=O)N[C@H]1C(=O)N[C@@H](CC(N)=O)C(=O)N[C@H]2C(=O)N[C@H]3C(=O)N[C@H](C(=O)N[C@@H](C(=O)NCc4cn(CCNC(=O)c5ccc(O)c(O)c5Cl)nn4)c4cc(O)cc(O)c4-c4cc3ccc4O)[C@H](O)c3ccc(c(Cl)c3)Oc3cc2cc(c3OC2O[C@H](CO)C(O)C(O)[C@H]2O[C@H]2CC(C)(N)[C@H](O)C(C)O2)Oc2ccc(cc2Cl)[C@H]1O (some centres unmarked) [Compound 19],> 64 µg/mL,> 64 µg/mL,> 64 µg/mL,> 64 µg/mL,> 64 µg/mL,1 µg/mL,> 64 µg/mL,8 µg/mL
CNC(CC(C)C)C(=O)N[C@H]1C(=O)N[C@@H](CC(N)=O)C(=O)N[C@H]2C(=O)N[C@H]3C(=O)N[C@H](C(=O)N[C@@H](C(=O)NCCOCCNC(=O)c4ccc(O)c(O)c4Cl)c4cc(O)cc(O)c4-c4cc3ccc4O)[C@H](O)c3ccc(c(Cl)c3)Oc3cc2cc(c3OC2O[C@H](CO)C(O)C(O)[C@H]2O[C@H]2CC(C)(N)[C@H](O)C(C)O2)Oc2ccc(cc2Cl)[C@H]1O (stereo in doubt) [Compound 10],16 µg/mL,> 64 µg/mL,> 64 µg/mL,> 64 µg/mL,> 64 µg/mL,2 µg/mL,> 64 µg/mL,4 µg/mL
CN[C@H](CC(C)C)C(=O)N[C@H]1C(=O)N[C@@H](CC(N)=O)C(=O)N[C@H]2C(=O)N[C@H]3C(=O)N[C@H](C(=O)N[C@H](C(=O)NCCCCNS(=O)(=O)c4ccc(O)c(O)c4)c4cc(O)cc(O)c4-c4cc3ccc4O)[C@H](O)c3ccc(c(Cl)c3)Oc3cc2cc(c3O[C@@H]2O[C@H](CO)C(O)C(O)[C@H]2O[C@H]2CC(C)(N)[C@H](O)[C@H](C)O2)Oc2ccc(cc2Cl)[C@H]1O (some centres unmarked) [Compound 17],32 µg/mL,64 µg/mL,> 64 µg/mL,> 64 µg/mL,> 64 µg/mL,2 µg/mL,> 64 µg/mL,2 µg/mL
CNC(CC(C)C)C(=O)NC1C(=O)NC(CC(N)=O)C(=O)NC2C(=O)NC3C(=O)NC(C(=O)N[C@H](C(=O)O)c4cc(O)c(CNCCCNC(=O)c5ccc(O)c(O)c5Cl)c(O)c4-c4cc3ccc4O)C(O)c3ccc(c(Cl)c3)Oc3cc2cc(c3OC2OC(CO)C(O)C(O)C2OC2CC(C)(N)C(O)C(C)O2)Oc2ccc(cc2Cl)C1O (some centres unmarked) [Compound 22],16 µg/mL,32 µg/mL,> 64 µg/mL,> 64 µg/mL,> 64 µg/mL,4 µg/mL,> 64 µg/mL,64 µg/mL
CNC(CC(C)C)C(=O)NC1C(=O)NC(CC(N)=O)C(=O)NC2C(=O)NC3C(=O)NC(C(=O)N[C@H](C(=O)O)c4cc(O)cc(O)c4-c4cc3ccc4O)C(O)c3ccc(c(Cl)c3)Oc3cc2cc(c3OC2OC(CO)C(O)C(O)C2OC2CC(C)(NCCCc3cn(CCCNC(=O)c4ccc(O)c(O)c4Cl)nn3)C(O)C(C)O2)Oc2ccc(cc2Cl)C1O (some centres unmarked) [Compound 31],> 64 µg/mL,32 µg/mL,> 64 µg/mL,> 64 µg/mL,> 64 µg/mL,64 µg/mL,> 64 µg/mL,8 µg/mL
